From US5428051A, “Methods of combating pneumocystis carinii pneumonia and compounds useful therefor” (priority 1992, dated 1995)
Read-outs that look alike come from different tables or passages of the source.

How the values were obtained:
[1] = test system: Pneumocystis carinii; assay: Treatment of Pneumocystis carinii pneumonia in rats: histologic scoring of lung cysts (GMS stain); assay type: in vivo, Sprague-Dawley rats; set-up: key to Mean Histologic Score: lung cyst score: 0.5 = <10 cysts, 4 = >50% of lung tissue involved; settings: daily i.v., 14 days; for No. of animals with histologic score 0.5: 0.5 = less than 10 cysts per two sections; for No. of animals with histologic score 1: 1 = <10% of lung tissue involved; for No. of animals with histologic score 2: 2 = 10 to 25% of lung tissue involved; for No. of animals with histologic score 3: 3 = 26 to 50% of lung tissue involved; for No. of animals with histologic score 4: 4 = >50% of lung tissue involved; for Mean Histologic Score: score scale 0.5-4
Procedure: (§1) Induction and Treatment of Pneumocystis carinii in Sprague-Dawley Rats
(§2) Male Sprague-Dawley rats, barrier raised, non-certified virus free, weighing 150-200 g were obtained from Hilltop Laboratories and housed individually. Animals were begun on a low (8%) protein diet (ICN Biomedicals, Cincinnati, Ohio) and drinking water containing tetracycline (0.5 mg/ml) and dexamethasone (1.0 μg/ml). This treatment was given for the next 8 weeks, monitoring fluid intake daily and weighing animals weekly. Dilutions of the drinking solution were made when animals consumed too much fluid so as to prevent cortisone poisoning. At the beginning of the sixth week animals were divided into groups of eight or more animals each and the test compounds were administered daily by i.v. injection into the tail vein at the indicated dose for the next 14 days or orally by gavage for the next 14 days.
All animals were sacrificed at the end of the eighth week by chloroform inhalation and the right lung was inflated in situ with 10% formalin and fixed for histologic examination. The fixed lung tissue was sectioned longitudinally and stained with Grocott's methenamine silver (GMS) stain which selectively stains the walls of th P. carinii cysts. Stained sections were coded and each section was scored by 2 examiners using a blinded protocol. Sections were read and scored according to modification of known procedures (P. Walzer et al., Antimicrob. Agents. Chemother. 32: 896-905 (1988)) as follows: 0.5=less than 10 cysts counted per two fully examinec sections; 1=scattered cysts with <10% of lung tissue involved; 2=scattered cysts with limited intense focal involvement and 10 to 25% of lung tissue involved; 3=scattered cysts with numerous intense areas of focal involvement and 26 to 50% of lung tissue involved; 4=cysts found throughout the tissue with numerous very intense focal areas of involvement having >50% of lung tissue involved.
The Chi square goodness of fit was used to calculate the p values of each test group when compared to the saline-treated and pentamidine-treated groups. The statistical analysis was carried out using the StatView 512+ software package (Brainpower, Inc., Calabasas, Calif.) on a Macintosh II computer.

[2] = test system: Pneumocystis carinii; assay: Treatment of Pneumocystis carinii pneumonia in rats: cyst count in lung homogenate (cresyl violet); assay type: in vivo, Sprague-Dawley rats; settings: for response vs control in vivo at 10 mg/kg / response vs control in vivo at 5 mg/kg: Pneumocystis carinii, iv, 336 h, read-out: Cysts/g Lung (% of Control)
Procedure: as §1, §2
The left lung was weighed, ground through a #60 wire mesh, and suspended 1:10 (w/v) in Hank's balanced salts solution without cations (HBSS-) and 10 mM β-mercaptoethanol (β-Me). Slides were prepared by spotting 5 μl of lung homogenate diluted 1:10 in HBSS- with β-Me and allowed to air dry. The slides were stained with cresyl violet and the cysts were counted using a blinded protocol. The number of cysts/g of original lung tissue was calculated and the groups were reported as the percent of saline-treated controls.

[3] = Toxicity of the test compounds in rats (graded by local, clinical and histologic criteria); assay type: in vivo, Sprague-Dawley rats; settings: for Toxicity: 10.0 mg/kg, daily i.v., 14 days
Procedure: as §2

[4] = test system: Giardia lamblia; assay: In vitro activity against Giardia lamblia ([3H]-thymidine incorporation); assay type: cell-based, strain WB (ATCC #30957); settings: 42 hours, 37° C., read-out: IC50 ± S.D. In Vitro Antigiaridal Activity
Procedure: In vitro Biological Activity of Bis-Benzimidazoles Against Giardia lamblia
In brief, Giardia lamblia, strain WB (ATCC #30957) was grown to early log phase in filter sterilized Keister's medium with 10% heat-inactivated fetal bovine serum and 50 μg/ml ampicillin and 50 μg/ml gentamicin sulfate. Assay medium was modified Keister's medium plus 5% heat-inactivated fetal bovine serum. The assay procedure was carried out in accordance with the following steps:
(1) (0 hours) Serial dilutions of diamidines suspended in assay medium were prepared in duplicate rows of a 96-well microtiter plate and 2.5×10^4 trophozoites were added to each well. Plates were placed in an anaerobic chamber, gassed with nitrogen, and incubated at 37° C.
(2) (24 hours) Added [methyl-^3 H]-thmidine (1-10 Ci/mmol) to yield 1.5-2 μCi/well.
(3) (42 hours) Harvested cells with multimash-type cell harvester onto glass microfiber paper. Washed and dried filters were counted using a scintillation counter to determine the incorporation of [^3 H]-thymidine.
(4) Data on uptake of [^3 H]-thymidine were fitted to a logistic-logarithmic concentration response function by a non-linear regression method and drug concentrations required to inhibit 50% incorporation of [^3 H]-thymidine were determined.

[5] = test system: Pneumocystis carinii; assay: Anti-PCP activity in rats; assay type: in vivo, Sprague-Dawley rats
[6] = patients, intramuscular and intravenous routes; cited from earlier work
[7] = 10.0 mg/kg, daily i.v., 14 days, vs. saline-treated controls
[8] = daily i.v., 14 days, vs. saline-treated controls

Compound | No. of animals with histologic score 0.5 ([1]; 10.0 mg/kg) [animals] | No. of animals with histologic score 1 ([1]; 10.0 mg/kg) [animals] | No. of animals with histologic score 2 ([1]; 10.0 mg/kg) [animals] | No. of animals with histologic score 3 ([1]; 10.0 mg/kg) [animals] | No. of animals with histologic score 4 ([1]; 10.0 mg/kg) [animals] | Mean Histologic Score ([1]; 10.0 mg/kg) | IC50 ([4]; Giardia duodenalis) [µM] | response vs control in vivo at 10 mg/kg [2, 7] [%] | further results
1,4-bis[5-amidino-2-benzimidazolyl]propane [Compound 7] | 10 | 2 | 0 | 0 | 0 | 0.6 |  |  | Cysts/g Lung (% of Control) [2, 7]: 1.67 % of Control; Toxicity [3]: 0; IC50 [4]: 8.15 ± 6.9 µM
N=C(N)c1ccc2nc(Cc3nc4ccc(C(=N)N)cc4[nH]3)[nH]c2c1 [Compound 1, bis[5-amidino-2-benzimidazolyl]methane] | 7 | 1 | 0 | 0 | 0 | 0.6 | 307 ± 28.3 |  | Toxicity [3]: 0
N=C(N)c1ccc2nc(CCc3nc4ccc(C(=N)N)cc4[nH]3)[nH]c2c1 [Compound 3, 1,2-bis[5-amidino-2-benzimidazolyl]ethane] | 7 | 3 | 0 | 0 | 0 | 0.7 | 0.33 ± 0.15 | 2.05 | 
N=C(N)c1ccc2nc(CCCc3nc4ccc(C(=N)N)cc4[nH]3)[nH]c2c1 [Compound 5, 1,3-bis[5-amidino-2-benzimidazolyl]propane] | 0 | 1 | 1 | 7 | 3 | 3.0 | 32.5 ± 6.4 | 64.6 | 
c1cc2[nH]c(CCCc3nc4cc(C5=NCCN5)ccc4[nH]3)nc2cc1C1=NCCN1 [Compound 6] | 1 | 7 | 3 | 1 | 0 | 1.4 | 49.5 ± 7.8 | 9.23 | 
c1cc2[nH]c(CCCCc3nc4cc(C5=NCCN5)ccc4[nH]3)nc2cc1C1=NCCN1 [Compound 8] | 12 | 0 | 0 | 0 | 0 | 0.5 | 14.5 ± 3.5 | 0.07 | toxicity relative to the parent compound ([3]; vs. pentamidine (parent compound)): significantly less toxic than the parent compound; activity against PCP when administered orally ([5]; oral, daily dose of 25 mg/kg): exhibited some activity against PCP; potency as an anti-PCP agent relative to pentamidine ([5]; vs. pentamidine): over four times more potent
N=C(N)c1ccc2nc(CCCCCCCCc3nc4ccc(C(=N)N)cc4[nH]3)[nH]c2c1 [Compound 9, 1,8-bis[5-amidino-2-benzimidazolyl]octane] |  |  |  |  |  |  | 0.04 ± 0.01 |  | No. of animals with histologic score 0.5 ([1]; 5.0 mg/kg): 1 animals; No. of animals with histologic score 1 ([1]; 5.0 mg/kg): 0 animals; No. of animals with histologic score 2 ([1]; 5.0 mg/kg): 8 animals; No. of animals with histologic score 3 ([1]; 5.0 mg/kg): 3 animals; No. of animals with histologic score 4 ([1]; 5.0 mg/kg): 0 animals; Mean Histologic Score ([1]; 5.0 mg/kg): 2.1; response vs control in vivo at 5 mg/kg [2, 8]: 31.8%
N=C(N)c1ccc2nc(/C=C/c3nc4ccc(C(=N)N)cc4[nH]3)[nH]c2c1 [Compound 10, trans-1,2-bis[5-amidino-2-benzimidazolyl]ethene] |  |  |  |  |  |  |  |  | No. of animals with histologic score 0.5 ([1]; 5.0 mg/kg): 1 animals; No. of animals with histologic score 1 ([1]; 5.0 mg/kg): 5 animals; No. of animals with histologic score 2 ([1]; 5.0 mg/kg): 5 animals; No. of animals with histologic score 3 ([1]; 5.0 mg/kg): 1 animals; No. of animals with histologic score 4 ([1]; 5.0 mg/kg): 0 animals; Mean Histologic Score ([1]; 5.0 mg/kg): 1.5; response vs control in vivo at 5 mg/kg [2, 8]: 2.14%
N=C(N)c1ccc(OCCCCCOc2ccc(C(=N)N)cc2)cc1 [Pentamidine, reference compound] | 12 | 38 | 17 | 4 | 0 |  |  |  | response vs control in vivo at 10 mg/kg [2]: 3.13%
N=C(N)c1ccc(OCCCCCOc2ccc(C(=N)N)cc2)cc1 [pentamidine isethionate] |  |  |  |  |  |  |  |  | side effects / fatalities [6]: Some fatalities have been attributed to severe hypotension, hypoglycemia, and cardiac arrhythmias
